# Experimental data taken from patent US20190233796A1, “Generation of Inner Ear Cells” (Massachusetts Eye & Ear Infirmary, priority 2006, published 2019).
# Test system: Math1-estrogen receptor (ER) fusion protein
# Test: Tamoxifen-inducible Math1-estrogen receptor (ER) fusion construct in transfected cells
# Format: cell-based
# Conditions: addition of tamoxifen to the transfected cells
# From the text: This Example describes a system in which administration of tamoxifen, a […], induces expression of Math1. A Math1-estrogen receptor (ER) fusion protein, where the ER has been mutated so that it selectively binds to tamoxifen rather than estrogen, is constitutively expressed. In the absence of tamoxifen, the Math1-ER construct remains quiescent within the cytosol where it is inactivated by heat shock proteins. […] The sequence of Math1 is given above.
smiles,measurement,value
CC/C(=C(\c1ccccc1)c1ccc(OCCN(C)C)cc1)c1ccccc1 [tamoxifen],localization of the Math1-ER construct to the nucleus,dose-dependent localization of the Math1-ER construct to the nucleus
